In patent US4562068A, “Sebosuppressive cosmetic preparations containing aryloxobutenoic acid derivatives” (Henkel Kommanditgesellschaft auf Aktien, priority 1982, dated 1985):

System: brown cutaneous surface lipid of the rats
Experiment: Testing for anti-seborrheic activity: brown discoloration (brown cutaneous surface lipid) on shaved backs of male Wistar rats after topical application
Assay type: in vivo
Settings: 9 applications in 14 days; for Evaluation Method 1 (percentage of evaluators recognizing an effect): topical on one side of back fur, 6 male Wistar rats
Description: The anti-seborrheic activity of aryloxobutenoic acid derivatives was examined closely in the animal experiments described hereinafter. The experimental animals were male Wistar rats weighing from 220 to 230 gm. A degree of brown discoloration on the shaved backs of the rats was established visually; the brown discoloration was caused by the brown cutaneous surface lipid of the rats. This test is based upon the observation that young female rats as well as male rats that were washed with tenside solution and a lipid solvent, respectively, as well as male rats that were treated systematically with estrogen, show only the normal light-colored pink skin after shaving; parallel to this, only relatively very small amounts of lipid can be extracted from the shorn hair.
For evaluation of anti-seborrheic activity, the test substances set forth in the table below, each in solution in ethanol, were each brushed on one side of the back fur of six rats. The other side was treated only with the solvent without the active substance (control side). During the testing period of 14 days, application of test substance was made once a day on a total of 9 days. A group of 6 rats that remained completely untreated served as an additional control. At the end of the testing, the animals were shaved on the back and the flanks and inspected visually, this inspection being done independently by an evaluation panel (6 persons) under doubleblind conditions.
Three criteria were rated. The first criterion was whether the majority of the evaluators recognized the treated side properly. The differentiations were as follows:
The second criterion was the difference between the right and left sides, one point each to be given per evaluator and animal, in the manner that the darker side was rated 1, the lighter side was rated 0, and uniformity of both sides were rated 0.5.
Significant differences between the untreated and the treated side according to the second method of evaluation indicate the topical effectiveness of a substance.
The third criterion was the rating of the difference in intensity of the brown shades according to the following scale:
According to the third method of evaluation, the differences in the point totals between the untreated control animals and the treated and untreated sides, respectively, of the experimental animal group were calculated where significant differences between control animals and the treated side of the experimental animals indicate the effect of a substance. Similarly, a distinct difference between the untreated and the treated sides of the experimental animal groups is also generally noticeable. However, this is not always as distinct as that between control animals and treated sides, which may be due to various reasons, as, for example, mechanical transfer of substance from one side to the other or solvent influence.
The differentiation of the effects according to the methods of evaluation 2 and 3 was characterized in the following manner:
In addition, the percentage of sebum reduction was calculated by dividing the point difference (ΔP) by the number of points for the control group (Pk) and multiplying by 100%, as follows: […]

[1] = Rattus norvegicus, 336 h, 0.1% in ethanol, topical, point difference (ΔP) / points of control group (Pk) x 100%, read-out: Sebum Reduction
[2] = Rattus norvegicus, 336 h, 0.5% in ethanol, topical, point difference (ΔP) / points of control group (Pk) x 100%, read-out: Sebum Reduction

Row | SMILES | Evaluation Method 1 (percentage of evaluators recognizing an effect) (0.1% in ethanol) | inhibition in vivo at 0.1 % [1] | also measured
1 | CCOC(=O)C=CC(=O)c1ccc(Cl)cc1 [Example 1, 4-(4'-Chloro-phenyl)-4-oxo-but-2-enoic acid ethyl ester] |  |  | Evaluation Method 1 (percentage of evaluators recognizing an effect) (0.25% in ethanol): ++ (100%); inhibition in vivo at 0.25 % (Rattus norvegicus, 336 h, 0.25% in ethanol, topical, point difference (ΔP) / points of control group (Pk) x 100%, read-out: Sebum Reduction): 84%
2 | CCOC(=O)C=CC(=O)c1ccccc1 [Example 2, 4-Phenyl-4-oxo-but-2-enoic ethyl ester] | ++ (100%) |  | 
3 | CC(C)OC(=O)C=CC(=O)c1ccccc1 [Example 3, 4-Phenyl-4-oxo-but-2-enoic isopropyl ester] | ++ (100%) | 68% | 
4 | CCCCOC(=O)C=CC(=O)c1ccccc1 [Example 4, 4-Phenyl-4-oxo-but-2-enoic acid butyl ester] | ++ (100%) | 66% | 
5 | CCOC(=O)C=CC(=O)c1ccc(OC)c(OC)c1 [Example 5, 4-(3',4'-Dimethoxy-phenyl)-4-oxo-but-2-enoic acid ethyl ester] | ++ (100%) | 65% | 
6 | CCCCOc1ccc(C(=O)C=CC(=O)OCC)cc1 [Example 6, 4-(4'-Butoxy-phenyl)-4-oxo-but-2-enoic acid ethyl ester] |  |  | Evaluation Method 1 (percentage of evaluators recognizing an effect) (0.5% in ethanol): ++ (100%); inhibition in vivo at 0.5 % [2]: 42%
7 | CCOC(=O)C=CC(=O)c1ccc(OC)c(OC)c1O [Example 8, 4-(3',4'-Dimethoxy-2'-hydroxy-phenyl)-4-oxo-but-2-enoic acid ethyl ester] |  |  | Evaluation Method 1 (percentage of evaluators recognizing an effect) (0.5% in ethanol): ++ (100%); inhibition in vivo at 0.5 % [2]: 69%
8 | CCOC(=O)C=CC(=O)c1ccc(NC(C)=O)cc1 [Example 9, 4-(4'-Acetylamino-phenyl)-4-oxo-but-2-enoic acid ethyl ester] | ++ (100%) | 84% | 
9 | CCOC(=O)C=CC(=O)c1ccc(Cl)cc1Cl [Example 10, 4-(2',4'-Dichloro-phenyl)-4-oxo-but-2-enoic acid ethyl ester] | ++ (100%) | 27% | 
